Species: Rattus norvegicus
Assay: DrugMatrix - Regimen: Daily Repeat
Assay type: toxicity, organism-based, Sprague-Dawley
Set-up: regimen Daily Repeat, gender Male, age 6-8 weeks
Details: in vivo, po, route oral GAVAGE, vehicle .5 % CMC; for ABSOLUTE BASOPHIL / ABSOLUTE EOSINOPHIL / ABSOLUTE LYMPHOCYTE / ABSOLUTE MONOCYTE / ABSOLUTE SEGMENTED NEUTROPHIL / BASOPHIL / EOSINOPHIL / ERYTHROCYTE COUNT / HEMATOCRIT / HEMOGLOBIN / LEUKOCYTE COUNT / LYMPHOCYTE / MEAN CORPUSCULAR HEMOGLOBIN / MEAN CORPUSCULAR HEMOGLOBIN CONCENTRATION / MEAN CORPUSCULAR VOLUME / MONOCYTE / NEUTROPHIL / NUCLEATED RED BLOOD CELLS / PLATELET COUNT: tissue Blood; for ALANINE AMINOTRANSFERASE / ALBUMIN / ALKALINE PHOSPHATASE / ASPARTATE AMINOTRANSFERASE / BLOOD UREA NITROGEN / CARBON DIOXIDE / CHLORIDE / CHOLESTEROL / CREATINE PHOSPHOKINASE / CREATININE / GLUCOSE / LACTATE DEHYDROGENASE / LIPASE / PHOSPHORUS / POTASSIUM / SODIUM / TOTAL BILIRUBIN / TOTAL PROTEIN / URIC ACID: tissue Plasma
[1] = 50 mg/kg, 72 h, dose level Low, time 3 day
[2] = 50 mg/kg, 120 h, dose level Low, time 5 day
[3] = 1500 mg/kg, 72 h, dose level High, time 3 day
[4] = 1500 mg/kg, 120 h, dose level High, time 5 day

CC[C@H]1OC(=O)[C@H](C)[C@@H](O[C@H]2C[C@@](C)(OC)[C@@H](O)[C@H](C)O2)[C@H](C)[C@@H](O[C@@H]2O[C@H](C)C[C@H](N(C)C)[C@H]2O)[C@](C)(O)C[C@@H](C)C(=O)[C@H](C)[C@@H](O)[C@]1(C)O [ERYTHROMYCIN]
ABSOLUTE BASOPHIL [1]: 0 CELLS/uL | ABSOLUTE EOSINOPHIL [1]: 38.33 CELLS/uL | ABSOLUTE LYMPHOCYTE [1]: 15941.33 CELLS/uL | ABSOLUTE MONOCYTE [1]: 389.67 CELLS/uL | ABSOLUTE SEGMENTED NEUTROPHIL [1]: 1297.33 CELLS/uL | BASOPHIL [1]: 0% | EOSINOPHIL [1]: 0.33% | ERYTHROCYTE COUNT [1]: 5.45 x10E6/uL | HEMATOCRIT [1]: 34.13% | HEMOGLOBIN [1]: 13.53 G/DL | LEUKOCYTE COUNT [1]: 17.67 x10E3/uL | LYMPHOCYTE [1]: 89.67% | MEAN CORPUSCULAR HEMOGLOBIN [1]: 24.9 pg | MEAN CORPUSCULAR HEMOGLOBIN CONCENTRATION [1]: 39.67 G/DL | MEAN CORPUSCULAR VOLUME [1]: 62.7 fL | MONOCYTE [1]: 2% | NEUTROPHIL [1]: 8% | NUCLEATED RED BLOOD CELLS [1]: 0 /100WBC | PLATELET COUNT [1]: 1119.67 x10E3/uL | ALANINE AMINOTRANSFERASE [1]: 49.33 u/L | ALBUMIN [1]: 4.3 G/DL | ALKALINE PHOSPHATASE [1]: 366 u/L | ASPARTATE AMINOTRANSFERASE [1]: 81 u/L | BLOOD UREA NITROGEN [1]: 14.67 mg/dL | CARBON DIOXIDE [1]: 28.33 mmol/L | CHLORIDE [1]: 99.33 MEQ/L | CHOLESTEROL [1]: 80 mg/dL | CREATINE PHOSPHOKINASE [1]: 238.67 u/L | CREATININE [1]: 0.19 mg/dL | GLUCOSE [1]: 154 mg/dL | LACTATE DEHYDROGENASE [1]: 152.67 u/L | LIPASE [1]: 9 u/L | PHOSPHORUS [1]: 12 mg/dL | POTASSIUM [1]: 6.83 MEQ/L | SODIUM [1]: 143.9 MEQ/L | TOTAL BILIRUBIN [1]: 0.27 mg/dL | TOTAL PROTEIN [1]: 6 G/DL | URIC ACID [1]: 1.57 mg/dL | ABSOLUTE BASOPHIL [2]: 0 CELLS/uL | ABSOLUTE EOSINOPHIL [2]: 0 CELLS/uL | ABSOLUTE LYMPHOCYTE [2]: 13393.67 CELLS/uL | ABSOLUTE MONOCYTE [2]: 52.33 CELLS/uL | ABSOLUTE SEGMENTED NEUTROPHIL [2]: 520.67 CELLS/uL | BASOPHIL [2]: 0% | EOSINOPHIL [2]: 0% | ERYTHROCYTE COUNT [2]: 4.88 x10E6/uL | HEMATOCRIT [2]: 31.9% | HEMOGLOBIN [2]: 12.4 G/DL | LEUKOCYTE COUNT [2]: 13.97 x10E3/uL | LYMPHOCYTE [2]: 96% | MEAN CORPUSCULAR HEMOGLOBIN [2]: 25.47 pg | MEAN CORPUSCULAR HEMOGLOBIN CONCENTRATION [2]: 38.87 G/DL | MEAN CORPUSCULAR VOLUME [2]: 65.47 fL | MONOCYTE [2]: 0.33% | NEUTROPHIL [2]: 3.67% | NUCLEATED RED BLOOD CELLS [2]: 1 /100WBC | PLATELET COUNT [2]: 1227.33 x10E3/uL | ALANINE AMINOTRANSFERASE [2]: 45 u/L | ALBUMIN [2]: 4.23 G/DL | ALKALINE PHOSPHATASE [2]: 454.67 u/L | ASPARTATE AMINOTRANSFERASE [2]: 86.33 u/L | BLOOD UREA NITROGEN [2]: 15.33 mg/dL | CARBON DIOXIDE [2]: 25.67 mmol/L | CHLORIDE [2]: 104 MEQ/L | CHOLESTEROL [2]: 39 mg/dL | CREATINE PHOSPHOKINASE [2]: 315.67 u/L | CREATININE [2]: 0.19 mg/dL | GLUCOSE [2]: 170 mg/dL | LACTATE DEHYDROGENASE [2]: 199 u/L | LIPASE [2]: 7.67 u/L | PHOSPHORUS [2]: 10.83 mg/dL | POTASSIUM [2]: 6.66 MEQ/L | SODIUM [2]: 143.43 MEQ/L | TOTAL BILIRUBIN [2]: 0.27 mg/dL | TOTAL PROTEIN [2]: 6.13 G/DL | URIC ACID [2]: 1.5 mg/dL | ABSOLUTE BASOPHIL [3]: 0 CELLS/uL | ABSOLUTE EOSINOPHIL [3]: 0 CELLS/uL | ABSOLUTE LYMPHOCYTE [3]: 15179 CELLS/uL | ABSOLUTE MONOCYTE [3]: 91.33 CELLS/uL | ABSOLUTE SEGMENTED NEUTROPHIL [3]: 1229.67 CELLS/uL | BASOPHIL [3]: 0% | EOSINOPHIL [3]: 0% | ERYTHROCYTE COUNT [3]: 6.59 x10E6/uL | HEMATOCRIT [3]: 42.83% | HEMOGLOBIN [3]: 16.43 G/DL | LEUKOCYTE COUNT [3]: 16.5 x10E3/uL | LYMPHOCYTE [3]: 91% | MEAN CORPUSCULAR HEMOGLOBIN [3]: 24.97 pg | MEAN CORPUSCULAR HEMOGLOBIN CONCENTRATION [3]: 38.43 G/DL | MEAN CORPUSCULAR VOLUME [3]: 64.9 fL | MONOCYTE [3]: 0.67% | NEUTROPHIL [3]: 8.33% | NUCLEATED RED BLOOD CELLS [3]: 0 /100WBC | PLATELET COUNT [3]: 1070 x10E3/uL | ALANINE AMINOTRANSFERASE [3]: 65.33 u/L | ALBUMIN [3]: 4.03 G/DL | ALKALINE PHOSPHATASE [3]: 390 u/L | ASPARTATE AMINOTRANSFERASE [3]: 86.33 u/L | BLOOD UREA NITROGEN [3]: 9.33 mg/dL | CARBON DIOXIDE [3]: 34 mmol/L | CHLORIDE [3]: 100 MEQ/L | CHOLESTEROL [3]: 106.33 mg/dL | CREATINE PHOSPHOKINASE [3]: 328 u/L | CREATININE [3]: 0.16 mg/dL | GLUCOSE [3]: 137.67 mg/dL | LACTATE DEHYDROGENASE [3]: 131 u/L | LIPASE [3]: 9 u/L | PHOSPHORUS [3]: 12.3 mg/dL | POTASSIUM [3]: 6.72 MEQ/L | SODIUM [3]: 144.47 MEQ/L | TOTAL BILIRUBIN [3]: 0.1 mg/dL | TOTAL PROTEIN [3]: 6.17 G/DL | URIC ACID [3]: 2.13 mg/dL | ABSOLUTE BASOPHIL [4]: 0 CELLS/uL | ABSOLUTE EOSINOPHIL [4]: 0 CELLS/uL | ABSOLUTE LYMPHOCYTE [4]: 14587.33 CELLS/uL | ABSOLUTE MONOCYTE [4]: 796.67 CELLS/uL | ABSOLUTE SEGMENTED NEUTROPHIL [4]: 1949.33 CELLS/uL | BASOPHIL [4]: 0% | EOSINOPHIL [4]: 0% | ERYTHROCYTE COUNT [4]: 6.53 x10E6/uL | HEMATOCRIT [4]: 39.67% | HEMOGLOBIN [4]: 15.9 G/DL | LEUKOCYTE COUNT [4]: 17.33 x10E3/uL | LYMPHOCYTE [4]: 84.67% | MEAN CORPUSCULAR HEMOGLOBIN [4]: 24.4 pg | MEAN CORPUSCULAR HEMOGLOBIN CONCENTRATION [4]: 40.13 G/DL | MEAN CORPUSCULAR VOLUME [4]: 60.83 fL | MONOCYTE [4]: 4.33% | NEUTROPHIL [4]: 11% | NUCLEATED RED BLOOD CELLS [4]: 0 /100WBC | PLATELET COUNT [4]: 1382.33 x10E3/uL | ALANINE AMINOTRANSFERASE [4]: 67 u/L | ALBUMIN [4]: 3.7 G/DL | ALKALINE PHOSPHATASE [4]: 311.67 u/L | ASPARTATE AMINOTRANSFERASE [4]: 107.33 u/L | BLOOD UREA NITROGEN [4]: 13.67 mg/dL | CARBON DIOXIDE [4]: 29 mmol/L | CHLORIDE [4]: 100 MEQ/L | CHOLESTEROL [4]: 107.67 mg/dL | CREATINE PHOSPHOKINASE [4]: 532.67 u/L | CREATININE [4]: 0.21 mg/dL | GLUCOSE [4]: 130.33 mg/dL | LACTATE DEHYDROGENASE [4]: 259.67 u/L | LIPASE [4]: 9.33 u/L | PHOSPHORUS [4]: 9.97 mg/dL | POTASSIUM [4]: 9.14 MEQ/L | SODIUM [4]: 141.8 MEQ/L | TOTAL BILIRUBIN [4]: 0.1 mg/dL | TOTAL PROTEIN [4]: 6.13 G/DL | URIC ACID [4]: 1.27 mg/dL
